PubChem BioAssay AID248 (DTP/NCI, 2004)
“And” between values parts separate entries of the source, which are not always exact repeats. Identical values can stand only once. Toxic doses and inconclusive results are not listed. Rule as the data show it: active = T/C of 150% or more; inactive = T/C below 125%.

Test system: L1210 leukemia ip in BDF1 mice, survival T/C
Experiment: NCI In Vivo Anticancer Drug Screen. Data for tumor model L1210 Leukemia (intraperitoneal) in B6D2F1 (BDF1) mice
Details: endpoint: mean survival time, higher = longer survival
Procedure, shortened: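 Survival endpoint. Drug-treated group vs vehicle group, expressed as T divided by C. Tumor passaged by transplantation.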

[1] = dose: 100.0 mg/kg/injection, schedule: Q04DX002 (ip), vehicle: saline
[2] = dose: 100.0 mg/kg/injection, schedule: Q04DX003 (ip), vehicle: saline
[3] = dose: 200.0 mg/kg/injection, schedule: Q04DX002 (ip), vehicle: saline
[4] = dose: 200.0 mg/kg/injection, schedule: Q04DX003 (ip), vehicle: saline
[5] = dose: 400.0 mg/kg/injection, schedule: Q04DX002 (ip), vehicle: saline
[6] = dose: 400.0 mg/kg/injection, schedule: Q04DX003 (ip), vehicle: saline
[7] = dose: 100.0 mg/kg/injection, schedule: Q01DX009 (ip), vehicle: saline with Tween-80
[8] = dose: 100.0 mg/kg/injection, schedule: Q04DX003 (ip), vehicle: saline with Tween-80
[9] = dose: 200.0 mg/kg/injection, schedule: Q04DX003 (ip), vehicle: saline with Tween-80
[10] = dose: 100.0 mg/kg/injection, schedule: Q01DX001 (ip), vehicle: carboxymethylcellulose (CMC)
[11] = dose: 200.0 mg/kg/injection, schedule: Q01DX001 (ip), vehicle: carboxymethylcellulose (CMC)
[12] = dose: 400.0 mg/kg/injection, schedule: Q01DX001 (ip), vehicle: carboxymethylcellulose (CMC)

Measured: T/C

C1OCC2OC12 (configuration not stated)
inactive: dose: 100.0 mg/kg/injection, schedule: Q01DX009 (ip), vehicle: saline 97 % of control and 88 % of control | [1] 97 % of control and 102 % of control | [2] 101 % of control | dose: 200.0 mg/kg/injection, schedule: Q01DX009 (ip), vehicle: saline 100 % of control and 87 % of control | [3] 100 % of control and 101 % of control | [4] 109 % of control | dose: 400.0 mg/kg/injection, schedule: Q01DX009 (ip), vehicle: saline 105 % of control and 87 % of control | [5] 104 % of control and 111 % of control | [6] 101 % of control

CCN(CC)C(C)C(=O)c1ccc2cc(Br)c3ccccc3c2c1 (configuration not stated)
inactive: dose: 222.0 mg/kg/injection, schedule: Q01DX Z (ip), vehicle: methylcellulose (MC) 97 % of control | dose: 333.0 mg/kg/injection, schedule: Q01DX Z (ip), vehicle: methylcellulose (MC) 104 % of control | dose: 500.0 mg/kg/injection, schedule: Q01DX Z (ip), vehicle: methylcellulose (MC) 87 % of control

O=C(O)/C=C/C(=O)Nc1ccc([N+](=O)[O-])cc1
inactive: [7] 101 % of control | [8] 107 % of control | dose: 200.0 mg/kg/injection, schedule: Q01DX009 (ip), vehicle: saline with Tween-80 102 % of control | [9] 101 % of control | dose: 400.0 mg/kg/injection, schedule: Q01DX009 (ip), vehicle: saline with Tween-80 95 % of control | dose: 400.0 mg/kg/injection, schedule: Q04DX003 (ip), vehicle: saline with Tween-80 107 % of control

O=C(O)/C(=C\CCC/C=C(\CCO)C(=O)O)CCO
inactive: dose: 100.0 mg/kg/injection, schedule: Q01DX001 (ip), vehicle: DMSO 100 % of control | dose: 100.0 mg/kg/injection, schedule: Q01DX009 (ip), vehicle: DMSO 99 % of control | dose: 200.0 mg/kg/injection, schedule: Q01DX001 (ip), vehicle: DMSO 97 % of control | dose: 200.0 mg/kg/injection, schedule: Q01DX009 (ip), vehicle: DMSO 99 % of control | dose: 400.0 mg/kg/injection, schedule: Q01DX001 (ip), vehicle: DMSO 102 % of control | dose: 400.0 mg/kg/injection, schedule: Q01DX009 (ip), vehicle: DMSO 91 % of control

O=C(CCCCl)CC(O)(C(F)(F)Cl)C(F)(F)Cl
inactive: [8] 104 % of control | [9] 102 % of control

CCC(=O)O[C@H]1CC[C@H]2[C@@H]3[C@H](C)CC4=CC(=O)CC[C@]4(C)[C@H]3CC[C@]12C
inactive: [10] 97 % of control | [11] 94 % of control | [12] 90 % of control

CC(N)COCc1ccccc1 (configuration not stated)
inactive: dose: 25.0 mg/kg/injection, schedule: Q01DX009 (ip), vehicle: saline 97 % of control | dose: 25.0 mg/kg/injection, schedule: Q04DX003 (ip), vehicle: saline with Tween-80 97 % of control | dose: 50.0 mg/kg/injection, schedule: Q01DX009 (ip), vehicle: saline 97 % of control | dose: 50.0 mg/kg/injection, schedule: Q04DX003 (ip), vehicle: saline with Tween-80 119 % of control | [8] 97 % of control and 88 % of control

CCOC(=O)N1C(=O)NC(=O)C1c1ccc(Cl)cc1 (configuration not stated)
inactive: dose: 50.0 mg/kg/injection, schedule: Q01DX001 (ip), vehicle: saline 96 % of control | dose: 100.0 mg/kg/injection, schedule: Q01DX001 (ip), vehicle: saline 112 % of control | dose: 200.0 mg/kg/injection, schedule: Q01DX001 (ip), vehicle: saline 100 % of control

O/N=c1\ncn(O)c2nc[nH]c12
inactive: dose: 75.0 mg/kg/injection, schedule: Q01DX001 (ip), vehicle: saline 93 % of control | dose: 150.0 mg/kg/injection, schedule: Q01DX001 (ip), vehicle: saline 103 % of control | dose: 300.0 mg/kg/injection, schedule: Q01DX001 (ip), vehicle: saline 93 % of control | dose: 300.0 mg/kg/injection, schedule: Q01DX009 (ip), vehicle: saline 123 % of control

C=C(NC(=O)C(=C)NC(=O)c1csc(C2=NC3c4csc(n4)C4NC(=O)c5csc(n5)C(C(C)(O)C(C)O)NC(=O)C5CSC(=N5)/C(=C/C)NC(=O)C(C(C)O)NC(=O)c5csc(n5)C3(CC2)NC(=O)C(C)NC(=O)C(=C)NC(=O)C(C)NC(=O)C(C(C)CC)NC2C=Cc3c(C(C)O)cc(nc3C2O)C(=O)OC4C)n1)C(N)=O (configuration not stated)
inactive: [10] 110 % of control | [2] 113 % of control | dose: 178.0 mg/kg/injection, schedule: Q01DX001 (ip), vehicle: saline 117 % of control | [11] 112 % of control | [12] 112 % of control

CCCCCOC(=O)C1(C)OC1c1ccccc1 (configuration not stated)
inactive: [1] 108 % of control | [3] 93 % of control | [5] 93 % of control

CCOC(=O)/C=C(/C)C#N
inactive: [10] 103 % of control | [11] 97 % of control | [12] 98 % of control

CCC(=S)Nc1ccc(Cl)cc1
inactive: dose: 25.0 mg/kg/injection, schedule: Q01DX009 (ip), vehicle: saline with Tween-80 103 % of control | dose: 50.0 mg/kg/injection, schedule: Q01DX009 (ip), vehicle: saline with Tween-80 105 % of control | [7] 112 % of control | [8] 91 % of control | [9] 110 % of control

O=C(NCCCl)NC(CO)C(=O)O (configuration not stated)
inactive: [2] 98 % of control | [4] 93 % of control | [6] 95 % of control

Nc1cc2c(cc1N)-c1ccccc1/C2=N\O
inactive: dose: 75.0 mg/kg/injection, schedule: Q01DX001 (ip), vehicle: carboxymethylcellulose (CMC) 102 % of control | dose: 150.0 mg/kg/injection, schedule: Q01DX001 (ip), vehicle: carboxymethylcellulose (CMC) 91 % of control
